Consider 87 molecules from PubChem BioAssay AID1418 (Emory University Molecular Libraries Screening Center, 2008).

As a reminder, the IC50 is the concentration that inhibits the measured activity by half.

Active and inactive are the calls of the source. The rule behind the calls is not given here.

The test deals with Induced myeloid leukemia cell differentiation protein Mcl-1 (Homo sapiens) (UniProt Q07820). Put plainly: blockers of Bid binding to Mcl-1 – biochemical, TR-FRET, dose response (AID 1418). Conditions: Mcl-1/Bid peptide binding, TR-FRET (europium/Dy647), 2 hr. (Time-resolved FRET reads energy transfer from a long-lived donor to a nearby acceptor.)
Sequence of Induced myeloid leukemia cell differentiation protein Mcl-1 (Homo sapiens) (Q07820 whole entry, looked up): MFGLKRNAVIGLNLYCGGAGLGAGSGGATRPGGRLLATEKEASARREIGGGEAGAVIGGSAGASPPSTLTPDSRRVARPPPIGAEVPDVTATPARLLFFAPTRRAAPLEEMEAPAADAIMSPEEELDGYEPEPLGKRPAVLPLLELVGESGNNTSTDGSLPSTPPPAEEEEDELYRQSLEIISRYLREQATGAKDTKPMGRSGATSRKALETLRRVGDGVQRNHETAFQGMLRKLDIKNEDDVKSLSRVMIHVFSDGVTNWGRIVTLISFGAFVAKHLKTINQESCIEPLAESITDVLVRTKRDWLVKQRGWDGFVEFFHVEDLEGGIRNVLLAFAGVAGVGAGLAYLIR
As to `COc1cccc(-n2c(SCc3ccccn3)nc3c(c2=O)SCC3)c1`, the IC50 was > 54 µM (inactive).

For `COc1ccc(CCNC(=O)c2ccc(=O)[nH]n2)cc1OC`, the IC50 is > 54 µM (inactive). For `O=C(NCCc1csc(-c2cccnc2)n1)c1cccs1`, the IC50 was > 54 µM (inactive). As for `N#C/C(=C1/CCCCCN1)c1nc2ccccc2s1`, the figure is > 54 µM (inactive); as for `CC1(c2cccc3ccccc23)NC(=O)N(CC(=O)NC2CCS(=O)(=O)C2)C1=O` (configuration not stated), > 54 µM (inactive); as for `Cc1ccnc(N/C=C(\C#N)c2nc(-c3cccc(Br)c3)cs2)c1`, 0.79 µM. `COC(=O)c1c(NC(=O)c2cnccn2)sc2c1CCC2`: the IC50 was > 54 µM (inactive). For `CCN(CC)c1ccc(/C=N/Nc2cccc(C)c2)c(O)c1` the value was > 54 µM (inactive); for `Cc1ccc2nc(N3CC(=O)Nc4ccccc43)nc(-c3ccccc3)c2c1`, > 54 µM (inactive).

As to `CCOC(=O)c1nc(C)sc1-c1ccnn1S(=O)(=O)c1ccc(C)cc1`, the IC50 was > 54 µM (inactive). With `NC(=O)c1cccn1-c1ncc(C(F)(F)F)cc1Cl`, the IC50 is > 54 µM (inactive). For `O=S(=O)(c1cccc(-c2nnc(SC(F)F)n2-c2ccccc2)c1)N1CCCCC1` the value was > 54 µM (inactive).

In the case of `COc1cccc(NC(=O)CSc2nc3ccccc3n2C)c1`, the IC50 was > 54 µM (inactive). As for `Cc1ccc(-n2cccc2/C=C2\C(=N)N3N=C(c4ccco4)SC3=NC2=O)cc1`, the figure is 3.46 µM; as for `CCOC(=O)c1sc(N2N=C(C)C(N=Nc3cccc(C)c3)C2=O)nc1C` (configuration not stated), 1.42 µM.

Consider `N=C1/C(=C\c2ccc(-c3ccc(C(=O)O)cc3)o2)C(=O)N=C2SC=C(c3ccccc3)N12`, for which the IC50 is 2.76 µM. For `Oc1[nH]c2ccccc2c1/C=N/N1CCCCC1` the value was > 54 µM (inactive); for `COc1cc2[nH]c(=S)n(N(C(C)=O)C(C)=O)c(=O)c2cc1OC`, > 54 µM (inactive). For `CC(Oc1ccc(Cl)cc1Cl)C(=O)N(C)c1ccccc1` (configuration not stated) the value was > 54 µM (inactive). For `COc1cc(S(=O)(=O)Nc2cccc(C)c2)ccc1NC(=O)c1ccncc1` the value was > 54 µM (inactive). Turning to `Cc1ccc(COc2ccc(C(=O)NN)cc2)cc1`, the IC50 was > 54 µM (inactive). As for `COc1ccccc1NC(=O)COc1cc(Br)c(CNCCCN2CCOCC2)cc1OC`, the figure is > 54 µM (inactive); as for `COc1ccc(OC)c(Nc2nc(-c3cccc([N+](=O)[O-])c3)nc3ccccc23)c1`, > 54 µM (inactive); as for `O=P(O)(O)C#Cc1ccccc1`, > 54 µM (inactive). For `COc1cccc(CN(C(=O)/C=C/c2ccc(Cl)cc2)C2CCS(=O)(=O)C2)c1` (configuration not stated) the value was > 54 µM (inactive); for `CCOc1cc(C(=S)N2CCOCC2)ccc1O`, > 54 µM (inactive); for `C/C(=N\Nc1cccc(C(=O)O)c1)c1ccc2c(c1)Nc1ccccc1S2`, 0.76 µM. For the molecule `C#CCOCCOCCOCCNc1nc(N2CCN(C(=O)[C@H](CCC(=O)O)n3cc(C(N)CC(C)C)nn3)CC2)nc(N2CCN(C(=O)[C@H](CCC(=O)O)n3cc(C(N)CC(C)C)nn3)CC2)n1` (some centres not stated), the IC50 was 15.2 µM. For `O=c1c2ccccc2sc2nc(C3CCCCC3)n(Cc3ccco3)c(=O)c12` the value was 19.3 µM. For `N#Cc1ccccc1Cn1c(-c2cscn2)nc2ccccc21` the value was > 54 µM (inactive); for `CCOC(=O)c1cc(-c2ccccc2)n(CC(=O)N2CCCC2)c1C`, > 54 µM (inactive); for `Cc1csc(CCc2nc(C)cs2)n1`, > 54 µM (inactive).

Take `O=C(N/N=C/c1cccc([N+](=O)[O-])c1)c1cc2c(ccc3ccccc32)o1`: the IC50 is 1.64 µM. On to `CCOc1cc(C=C2C(=O)c3ccccc3C2=O)ccc1OCC(=O)Nc1ccc(C)cc1`, for which the IC50 is 1.2 µM.

With `COc1cccc(Nc2nc(NCC3CCCO3)c3ccccc3n2)c1` (configuration not stated), the IC50 is > 54 µM (inactive).

As for `COc1cccc(NC(=O)C(=O)N/N=C/c2cc(C)n(-c3ccc(Cl)c(Cl)c3)c2C)c1`, the IC50 was > 54 µM (inactive). For `O=C(Nc1ccc(S(=O)(=O)Nc2ncccn2)cc1)c1ccc2ncsc2c1` the value was 0.86 µM. As for `Cc1nn(Cc2ccccc2)c(C)c1NC(=O)CSc1nc(-c2ccccc2)nc2c1cnn2-c1ccccc1`, the figure is 0.47 µM; as for `COc1cc2cc3c(N)c(C(=O)Nc4sc(C)c(C)c4C#N)sc3nc2cc1OC`, 0.97 µM; as for `CCN1/C(=C\C=C2\C(=O)N(c3ccccc3)C(=S)N2C)Sc2ccccc21`, 2.97 µM. As for `COc1ccc(C(=O)Nc2ccc3c(c2)C(=O)c2ccccc2C3=O)cc1OC`, the figure is 0.6 µM; as for `Cc1sc(NC(=O)c2ccccc2)c(C(=O)N2CCN(C)CC2)c1C`, > 54 µM (inactive). For `NC(=S)n1[nH]c(-c2ccc([N+](=O)[O-])cc2)c(N=Nc2ccc(Cl)cc2)c1=O`, the IC50 is 0.56 µM.

As for `O=C(Cn1nc(C(=O)O)c2ccccc2c1=O)Nc1ccc2c(c1)C(=O)c1ccccc1C2=O`, the IC50 is 2.93 µM. For `COc1ccc(NC(=O)c2[nH]ncc2[N+](=O)[O-])cc1` the value was > 54 µM (inactive). For `CN(CCO)S(=O)(=O)c1ccc2c(c1)C(=NO)c1cc(S(=O)(=O)N(C)CCO)ccc1-2` the value was > 54 µM (inactive); for `Cc1cc(C)c(S(=O)(=O)/N=C2/C=C(Sc3ncn[nH]3)C(=O)c3ccccc32)cc1C`, 1.19 µM; for `COc1ccc(NC(=O)Cn2nnc(-c3ccccc3NC(=O)c3ccco3)n2)cc1`, 6.22 µM. With `COc1ccc(CCNc2nc(-c3sc(C)nc3C)cs2)cc1OC`, the IC50 result was “inactive”. As for `Cc1ccc(S(=O)(=O)CCNC(=O)Cc2ccccc2)cc1`, the figure is > 54 µM (inactive); as for `O=C(O)COc1ccc(/C=N/NC(=O)c2ccc(-c3csc(Nc4ccc(Cl)cc4)n3)cc2)cc1`, 1.43 µM. For `O=C(N/N=C/c1ccc(F)cc1)c1cc(-c2ccco2)nc2ccccc12` the value was 3.3 µM. Turning to `Cc1cccc(-n2c(SCC(=O)Nc3nnc(C)s3)nnc2-c2ccoc2C)c1`, the IC50 was > 54 µM (inactive). As for `Cc1ccc(-c2nc(SCC(=O)Nc3ccccc3OC(F)F)c3c(C)c(C(=O)O)sc3n2)cc1`, the figure is > 54 µM (inactive); as for `CN1/C(=C\C=C2C(=O)NC(=S)NC2=O)C(C)(C)c2ccccc21`, > 54 µM (inactive); as for `O=C(NCCc1ccccc1)C1CCN(S(=O)(=O)c2ccc(-c3nn[nH]n3)cc2)CC1`, > 54 µM (inactive). For `CC(=O)c1cccc(NC(=O)C2CCN(C(=O)c3ccc([N+](=O)[O-])cc3)CC2)c1` the value was > 54 µM (inactive); for `CCO[C@@H]1OC(C(=O)N2CCN(Cc3ccccc3)CC2)=C[C@H](C2CC2)[C@H]1CCCO`, > 54 µM (inactive); for `COc1ccc2c(=O)c3c(=O)n(CCc4ccccc4)c(C(C)C)nc3oc2c1`, > 54 µM (inactive). Regarding `O=C(CSc1nc(-c2ccccc2)nc2c1Cc1ccccc1O2)Nc1ccc(C(=O)O)cc1`, the IC50 was 3.03 µM. As for `CCCN1CCC(NC(=S)Nc2ccc(C(=O)OCC)cc2)CC1`, the figure is > 54 µM (inactive); as for `O=C(/C=C/N1CCOCC1)c1coc2ccccc12`, > 54 µM (inactive); as for `O=C(COc1ccc(/C=N/NC(=O)c2cc3ccccc3o2)cc1Br)Nc1ccccc1`, 0.61 µM.

`Cc1c(NC(=O)COC(=O)c2cc(-c3ccc(-c4ccccc4)cc3)nc3ccccc23)c(=O)n(-c2ccccc2)n1C`: the IC50 was 0.58 µM.

On to `O=C1NC(=S)N/C1=C/c1ccc(-c2c(Br)cc([N+](=O)[O-])cc2Br)o1`, for which the IC50 is 1.59 µM. As for `O=C(O)[C@@H](c1ccccc1)N1Cc2ccccc2C1=O`, the IC50 is 0.54 µM. As for `CCOC(=O)N1CCN(c2nc(C)c3c(n2)CCCC3=O)CC1`, the figure is > 54 µM (inactive); as for `COc1ccc2[nH]c3c4c(ccc3c2c1)C(=O)C=CC4=O`, 2.51 µM.

`Cc1ccc(CNC(=O)CCS(=O)(=O)c2cccc3nonc23)cc1`: the IC50 was > 54 µM (inactive). For `Cc1ccc(C(=O)NC(C)c2nc3ccccc3n2CC(=O)Nc2c(C)cc(C)cc2C)cc1` (configuration not stated) the value was 0.45 µM; for `CC(C)(C)CC(C)(C)NC(=S)NC1CCN(Cc2ccccc2)CC1`, > 54 µM (inactive); for `CCOC(=O)c1cc2occc2n1CC(=O)NC1CCCCC1C` (configuration not stated), > 54 µM (inactive). For `Cc1nc(CSc2nc3[nH]ncc3c(=O)n2-c2ccccc2)cs1` the value was > 54 µM (inactive). As for `Cc1ccc(NC(=O)CN2C(=O)/C(=C3\SC(=S)N(C4CCS(=O)(=O)C4)C3=O)c3ccccc32)cc1` (configuration not stated), the figure is 0.54 µM; as for `COc1ccc(C(=O)N2CCN(Cc3ccccc3C)CC2)cc1OC`, > 54 µM (inactive); as for `CCCC(=O)Nc1ccc2oc(-c3cccnc3)nc2c1`, > 54 µM (inactive). On to `Cc1cc(C)cc(N(CC(=O)NC2CCC(C)CC2)S(=O)(=O)c2c(C)noc2C)c1` (configuration not stated), for which the IC50 is > 54 µM (inactive). For `Cc1cc(C)n(Cc2cccc(F)c2)c(=O)c1C#N` the value was > 54 µM (inactive); for `O=C(/C=C/c1cccc([N+](=O)[O-])c1)Nc1ccc(NC(=O)c2cccs2)cc1`, 10.6 µM.

Regarding `CC(=O)Cc1nsc(NC(=O)c2ccc(-c3cc(C(F)(F)F)ccc3Cl)o2)n1`, the IC50 is > 54 µM (inactive). For `CCOc1cccc(CNCCO)c1OCc1ccc(Cl)cc1Cl` the value was > 54 µM (inactive). As for `O=C(Nc1ccccn1)c1ccc([N+](=O)[O-])cc1Cl`, the figure is > 54 µM (inactive); as for `NC(=O)COc1c(-c2ccccc2)oc2ccccc2c1=O`, > 54 µM (inactive). For the molecule `Cc1cccc(N(CC(=O)Nc2c(C)n(C)n(-c3ccccc3)c2=O)S(C)(=O)=O)c1`, the IC50 is > 54 µM (inactive). As for `O=C(Cc1sc(-c2ccccc2Cl)nc1-c1ccccc1)Nc1ccccc1`, the figure is > 54 µM (inactive); as for `CC1(c2ccc(Cl)cc2Cl)OCC(Cn2ccnc2)O1` (configuration not stated), > 54 µM (inactive); as for `O=C(COc1cccc2c1CCN(Cc1ccc(Br)cc1)C2=O)NCc1ccco1`, > 54 µM (inactive).
